Structures are written as SMILES.

For this assay, the target named is human IK (Homo sapiens (Human), UniProt O15554). As to the kind of experiment: Inhibition of IK channels expressed in HEK293 cells, thallium (I) sensitive FLIPR assay. Format: cell-based. The note with it: HEK293 cells over-expressing human IK; Tl+-sensitive BTC fluorescence (FLIPR); inhibition of activity induced by Ca2+-ionophore A23187. As for the experimental part:
Following experiment determines the ability of a test compound to inhibit the activity of IK channels heterologously expressed in human HEK293 cells, and was used as the primary screen. The ability is determined as per cent inhibition of the activity induced by addition of the Ca^2+-ionophore A23187 (considered a maximum response). The activity is determined using a standard thallium (I) sensitive assay, e.g. using a fluorometric method in a Fluorescent Image Plate Reader (FLIPR) as described below in more detail.
Full concentration/response curves are generated and IC50 values are calculated based on the degree of inhibition of the maximum response. IC50 values (Inhibitory Concentration) represent the concentration of the test substance at which 50% of the maximum channel activity is inhibited.
Human HEK293 cells over-expressing human IK are grown in culture medium (DMEM supplemented with 10% foetal bovine serum), in polystyrene culture flasks ([…]) in a humidified atmosphere of 5% CO2 in air, at 37° C. Cell confluence should be 80-90% on day of plating. Cells are rinsed with 4 mL of PBS (phosphate buffered saline) and incubated 2 min with 1 mL of Trypsin-EDTA. After addition of 25 mL of culture medium cells are re-suspended by trituration with a 25 mL pipette.
The cells are seeded at a density of ˜3×10^6 cells/mL (25 μL/well) in black-walled, clear bottom, 384-well plates pre-treated with 0.01 g/L poly-D-lysin (20 μL/well for ≧30 min). Plated cells were allowed to proliferate for 24 h before loading with dye.
BTC-AM ([…], Invitrogen) is added 25.5 μl DMSO. The BTC-AM stock solution (2 mM) is diluted to a final concentration of 2 μM in […] assay buffer (in mM: 140 Na^+-gluconate, 2.5 K^+-gluconate, 6 Ca2^+-gluconate, 1 Mg^2+ gluconate, 5 glucose, 10 HEPES, pH 7.3) containing 2 μM ouabain, 2 mM amaranth and 1 mM tartrazine.
The culture medium is aspirated from the wells, and 25 μl of the BTC-AM loading solution are added to each well. The cells are incubated at 37° C. for 60 min.
After the loading period, the Tl^+-sensitive BTC fluorescence signal is measured over time using a FLIPR.
• Temperature: Room temp. • First addition: 12 μl test or control compound after 15 sec at a rate of 30 μL/sec and starting height of 20 μL • Second addition: 12 μL stimulus buffer (Cl^− free assay buffer supplemented with 1 mM Tl2SO4, 5 μM A23187 as well as the quenchers amaranth (2 mM) and tartrazine (1 mM)) is added after an additional 3 minutes at a rate of 30 μL/sec and starting height of 30 μL • Reading intervals: First sequence—3 sec×5, 2 sec×24 and 5 sec×25 • Second sequence—1 sec×5, 2 sec×24 and 5 sec×36
Addition plates (compound plate and stimulus plate) are placed in positions 2 and 3, respectively. Cell plates are placed in position 1 and run using the “IK blocker (EtOH wash, two additions)” program. FLIPR will then take the appropriate measurements in accordance with the interval settings above. Fluorescence obtained after stimulation is corrected for the mean basal fluorescence (in Cl^− free assay buffer).
Full concentration/response curves are generated and IC50 values (“Inhibitory Concentration”, i.e. the concentration of the test substance at which 50% of the maximum channel activity is inhibited) are calculated. The responses are calculated based on peak values.
As to `COc1ccccc1-c1ccccc1-c1nnnn1-c1ccccc1OC` [Compound 51, 1-(2-Methoxyphenyl)-5-[2-(2-methoxyphenyl)phenyl]-1H-1,2,3,4-tetrazole], inhibition was half-maximal at 1200 nM (IC50).
For `COc1ccccc1-c1ccccc1-c1nnnn1-c1ccccc1O` [Compound 53, 2-{5-[2-(2-Methoxyphenyl)phenyl]-1H-1,2,3,4-tetrazol-1-yl}phenol] the value was 1200 nM; for `COc1ccccc1-n1nnnc1-c1ccccc1-c1ccccc1F` [Compound 54, 5-[2-(2-Fluorophenyl)phenyl]-1-(2-methoxyphenyl)-1H-1,2,3,4-tetrazole], 780 nM.
For `COc1ccccc1-c1ccccc1-c1nnnn1-c1ccccc1C#N` [Compound 56, 2-{5-[2-(2-Methoxyphenyl)phenyl]-1H-1,2,3,4-tetrazol-1-yl}benzonitrile] the value was 64 nM; for `Fc1ccccc1-c1ccccc1-c1nnnn1-c1ccccc1OC(F)F` [Compound 58, 1-[2-(Difluoromethoxy)phenyl]-5-[2-(2-fluorophenyl)phenyl]-1H-1,2,3,4-tetrazole], 1100 nM.
For `COc1ccccc1-c1ccccc1-c1nnnn1-c1ccccc1OC(F)F` [Compound 59, 1-[2-(Difluoromethoxy)phenyl]-5-[2-(2-methoxyphenyl)phenyl]-1H-1,2,3,4-tetrazole] the value was 69 nM; for `N#Cc1ccccc1-n1nnnc1-c1ccccc1-c1ccccc1OC(F)F` [Compound 62, 2-(5-{2-[2-(Difluoromethoxy)phenyl]phenyl}-1H-1,2,3,4-tetrazol-1-yl)benzonitrile], 210 nM.
In turn, `c1ccc(-c2ccccc2-c2nnnn2-c2ccccc2)cc1` [Compound 65, 1-Phenyl-5-(2-phenylphenyl)-1H-1,2,3,4-tetrazole] registered an IC50 of 890 nM.

By IC50 is commonly meant the concentration that inhibits the measured activity by half. Higher therefore signals lower potency.

For the origin of these results see patent US9556132B2, “Tetrazole derivatives and their use as potassium channel modulators” (SANIONA A/S, priority 2012, dated 2017).
